Test results from ChEMBL document CHEMBL5321200, “Discovery of the GSH responsive "Y-PROTACs" targeting ALK and CDK4/6 as a potential treatment for cancer” (Eur J Med Chem, 2023).
The source made the active and inactive calls. No cut-off for these calls is given here.

What was measured:
[1] = Cytotoxicity against human L02 cells assessed as inhibition of cell growth incubated for 3 to 5 days by MTT assay; type: toxicity, cell-based
NCI-H3122 [2] = experiment: Induction of apoptosis in human NCI-H3122 cells assessed as early apoptotic cells at 1.25 uM incubated for 48 hrs by Annexin V-FITC/propidium iodide staining based flow cytometric analysis (reference value: 0.71%); type: functional
[3] = biological target: T1, Protein cereblon/ALK tyrosine kinase receptor/Echinoderm microtubule-associated protein-like 4 (Homo sapiens) (UniProt Q9UM73+Q9HC35+Q96SW2); experiment: PROTAC activity at CRBN/EML4-ALK in human NCI-H3122 cells assessed as degradation of EML4-ALK fusion protein at 5 uM pretreated with MG132 for 4 hrs followed compound addition and measured after 24 hrs by Western blot analysis; type: cell-based
NCI-H3122 [4] = experiment: Cell cycle arrest in human NCI-H3122 cells assessed as accumulation of cells at G0/G1 phase at 0.312 uM incubated for 24 hrs by propidium iodide staining based flow cytometric analysis (reference value: 48.68%); type: functional
NCI-H3122 [5] = experiment: Cell cycle arrest in human NCI-H3122 cells assessed as accumulation of cells at G0/G1 phase at 2.5 uM incubated for 24 hrs by propidium iodide staining based flow cytometric analysis (reference value: 48.68%); type: functional
[6] = biological target: Protein cereblon/ALK tyrosine kinase receptor (Homo sapiens) (UniProt Q9UM73+Q96SW2); experiment: PROTAC activity at CRBN/ALK in human NCI-H3122 cells assessed as degradation of ALK protein at 5 uM pretreated with ceritinib for 4 hrs followed by compound addition and measured after 24 hrs by Western blot analysis; type: cell-based
[7] = Toxicity in BALB/c nude mouse xenografted with human NCI-H3122 cells assessed as effect on visceral lung morphology at 75 mg/kg, IG administered once daily for 18 days and measured after 12 hrs of last dose by H and E staining based analysis; type: organism-based; conditions: in vivo, po, 444 h
[8] = Toxicity in BALB/c nude mouse xenografted with human NCI-H3122 cells assessed as effect on liver function at 75 mg/kg, IG administered once daily for 18 days by H and E staining based assay; type: organism-based; conditions: in vivo, po, 432 h, time 18 day
[9] = Toxicity in BALB/c nude mouse xenografted with human NCI-H3122 cells assessed as effect on heart function at 75 mg/kg, IG administered once daily for 18 days and measured after 12 hrs of last dose by H and E staining based assay; type: organism-based; conditions: in vivo, po, 444 h
[10] = biological target: T2, Protein cereblon/Cyclin-dependent kinase 4 (Homo sapiens, UniProt P11802+Q96SW2); experiment: PROTAC activity at CRBN/CDK4 in human NCI-H3122 cells assessed as reduction in CDK4 protein level at 5 uM incubated for 16 hrs followed by compound washout and measured after 8 hrs by Western blot analysis; type: cell-based
[11] = biological target: T1, Protein cereblon/ALK tyrosine kinase receptor/Echinoderm microtubule-associated protein-like 4 (Homo sapiens); experiment: PROTAC activity at CRBN/EML4-ALK in human L02 cells assessed as reduction in ALK protein level at 1 to 20 uM incubated for 24 hrs in presence of GSH by Western blot analysis; type: cell-based; conditions: dose 1-20 µM
[12] = Toxicity in BALB/c nude mouse xenografted with human NCI-H3122 cells assessed as effect on visceral kidney morphology at 75 mg/kg, IG administered once daily for 18 days and measured after 12 hrs of last dose by H and E staining based analysis; type: organism-based; conditions: in vivo, po, 444 h
[13] = biological target: T2, Protein cereblon/Cyclin-dependent kinase 4; experiment: PROTAC activity at CRBN/CDK4 in human NCI-H3122 cells assessed as increase in CDK4 protein level at 5 uM measured after 24 hrs by Western blot analysis; type: cell-based
[14] = biological target: T1, Protein cereblon/ALK tyrosine kinase receptor/Echinoderm microtubule-associated protein-like 4 (Homo sapiens); experiment: PROTAC activity at CRBN/EML4-ALK in human L02 cells assessed as reduction in ALK protein level at 1 to 20 uM incubated for 24 hrs by Western blot analysis; type: cell-based; conditions: dose 1-20 µM
NCI-H3122 [15] = experiment: Induction of apoptosis in human NCI-H3122 cells assessed as viable cells at 0.312 uM incubated for 48 hrs by Annexin V-FITC/propidium iodide staining based flow cytometric analysis (reference value: 95.66%); type: functional; conditions: read-out: Activity
NCI-H3122 [16] = experiment: Antiproliferative activity against human NCI-H3122 cells assessed as inhibition of cell growth incubated for 5 days by MTT assay; type: functional, cell-based; conditions: NCI-H3122, 120 h
NCI-H3122 [17] = experiment: Induction of apoptosis in human NCI-H3122 cells assessed as viable cells at 0.625 uM incubated for 48 hrs by Annexin V-FITC/propidium iodide staining based flow cytometric analysis (reference value: 95.66%); type: functional; conditions: read-out: Activity
NCI-H3122 [18] = experiment: Antitumor activity against human NCI-H3122 cells xenografted in BALB/c nude mouse assessed as tumor growth inhibition at 75 mg/kg, IG administered once daily for 18 days and measured after 12 hrs of last dose relative to control; type: functional; conditions: NCI-H3122, po, time 444 hrs, read-out: TGI
NCI-H3122 [19] = experiment: Induction of apoptosis in human NCI-H3122 cells assessed as total apoptotic cells at 2.5 uM incubated for 48 hrs by Annexin V-FITC/propidium iodide staining based flow cytometric analysis relative to control; type: functional
NCI-H3122 [20] = experiment: Induction of apoptosis in human NCI-H3122 cells assessed as early apoptotic cells at 0.312 uM incubated for 48 hrs by Annexin V-FITC/propidium iodide staining based flow cytometric analysis (reference value: 0.71%); type: functional
[21] = Toxicity in BALB/c nude mouse xenografted with human NCI-H3122 cells assessed as effect on lung function at 75 mg/kg, IG administered once daily for 18 days by H and E staining based assay; type: organism-based; conditions: in vivo, po, 432 h, time 18 day
[22] = biological target: Cyclin-dependent kinase 4 (Homo sapiens) (UniProt P11802); experiment: Inhibition of CDK4 (unknown origin) at 1 uM by LANCE Ultra TR-FRET assay relative to control
[23] = Cytotoxicity against human L02 cells assessed as inhibition of cell growth pretreated with GSH followed by compound addition and incubated for 3 to 5 days by MTT assay; type: toxicity, cell-based
NCI-H3122 [24] = experiment: Cell cycle arrest in human NCI-H3122 cells assessed as G2/M phase cells at 2.5 uM incubated for 24 hrs by propidium iodide staining based flow cytometric analysis (reference value: 20.89%); type: functional
NCI-H3122 [25] = experiment: Induction of apoptosis in human NCI-H3122 cells assessed as viable cells at 1.25 uM incubated for 48 hrs by Annexin V-FITC/propidium iodide staining based flow cytometric analysis (reference value: 95.66%); type: functional; conditions: read-out: Activity
NCI-H3122 [26] = experiment: Induction of apoptosis in human NCI-H3122 cells assessed as early apoptotic cells at 2.5 uM incubated for 48 hrs by Annexin V-FITC/propidium iodide staining based flow cytometric analysis (reference value: 0.71%); type: functional
[27] = biological target: T2, Protein cereblon/Cyclin-dependent kinase 4; experiment: PROTAC activity at CRBN/CDK4 in human NCI-H2228 cells assessed as reduction in CDK4 protein level by Western blot analysis; type: cell-based
NCI-H3122 [28] = experiment: Induction of apoptosis in human NCI-H3122 cells assessed as necrotic cells at 0.625 uM incubated for 48 hrs by Annexin V-FITC/propidium iodide staining based flow cytometric analysis (reference value: 0.57%); type: functional
NCI-H3122 [29] = experiment: Induction of apoptosis in human NCI-H3122 cells assessed as necrotic cells at 0.312 uM incubated for 48 hrs by Annexin V-FITC/propidium iodide staining based flow cytometric analysis (reference value: 0.57%); type: functional

T2 sequence (P11802 2-303 limits assumed): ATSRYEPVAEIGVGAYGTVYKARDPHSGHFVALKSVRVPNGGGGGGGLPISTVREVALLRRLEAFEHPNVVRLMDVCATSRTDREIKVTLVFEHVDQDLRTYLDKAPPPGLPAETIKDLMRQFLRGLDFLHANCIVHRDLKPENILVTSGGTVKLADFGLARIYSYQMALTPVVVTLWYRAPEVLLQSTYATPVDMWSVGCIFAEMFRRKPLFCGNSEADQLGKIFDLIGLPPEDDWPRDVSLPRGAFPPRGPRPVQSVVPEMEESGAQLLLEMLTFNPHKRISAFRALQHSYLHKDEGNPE
T2 sequence (Q96SW2 whole entry partner): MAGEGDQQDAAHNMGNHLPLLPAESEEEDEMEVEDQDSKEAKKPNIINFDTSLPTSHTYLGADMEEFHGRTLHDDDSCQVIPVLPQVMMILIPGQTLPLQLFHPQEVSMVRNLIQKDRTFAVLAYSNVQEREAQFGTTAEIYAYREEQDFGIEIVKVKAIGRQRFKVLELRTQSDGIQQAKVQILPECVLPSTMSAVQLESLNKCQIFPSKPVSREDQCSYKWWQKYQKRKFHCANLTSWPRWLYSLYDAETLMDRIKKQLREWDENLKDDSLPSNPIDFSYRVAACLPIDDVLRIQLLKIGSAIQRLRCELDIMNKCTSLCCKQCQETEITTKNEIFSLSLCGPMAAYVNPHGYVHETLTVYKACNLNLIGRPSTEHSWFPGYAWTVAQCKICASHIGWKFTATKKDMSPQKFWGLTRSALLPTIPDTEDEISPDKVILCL
T1 sequence (Q96SW2 whole entry partner, the tested form may be a part): as the sequence (Q96SW2 whole entry partner) above
T1 sequence (Q9HC35 whole entry partner, the tested form may be a part): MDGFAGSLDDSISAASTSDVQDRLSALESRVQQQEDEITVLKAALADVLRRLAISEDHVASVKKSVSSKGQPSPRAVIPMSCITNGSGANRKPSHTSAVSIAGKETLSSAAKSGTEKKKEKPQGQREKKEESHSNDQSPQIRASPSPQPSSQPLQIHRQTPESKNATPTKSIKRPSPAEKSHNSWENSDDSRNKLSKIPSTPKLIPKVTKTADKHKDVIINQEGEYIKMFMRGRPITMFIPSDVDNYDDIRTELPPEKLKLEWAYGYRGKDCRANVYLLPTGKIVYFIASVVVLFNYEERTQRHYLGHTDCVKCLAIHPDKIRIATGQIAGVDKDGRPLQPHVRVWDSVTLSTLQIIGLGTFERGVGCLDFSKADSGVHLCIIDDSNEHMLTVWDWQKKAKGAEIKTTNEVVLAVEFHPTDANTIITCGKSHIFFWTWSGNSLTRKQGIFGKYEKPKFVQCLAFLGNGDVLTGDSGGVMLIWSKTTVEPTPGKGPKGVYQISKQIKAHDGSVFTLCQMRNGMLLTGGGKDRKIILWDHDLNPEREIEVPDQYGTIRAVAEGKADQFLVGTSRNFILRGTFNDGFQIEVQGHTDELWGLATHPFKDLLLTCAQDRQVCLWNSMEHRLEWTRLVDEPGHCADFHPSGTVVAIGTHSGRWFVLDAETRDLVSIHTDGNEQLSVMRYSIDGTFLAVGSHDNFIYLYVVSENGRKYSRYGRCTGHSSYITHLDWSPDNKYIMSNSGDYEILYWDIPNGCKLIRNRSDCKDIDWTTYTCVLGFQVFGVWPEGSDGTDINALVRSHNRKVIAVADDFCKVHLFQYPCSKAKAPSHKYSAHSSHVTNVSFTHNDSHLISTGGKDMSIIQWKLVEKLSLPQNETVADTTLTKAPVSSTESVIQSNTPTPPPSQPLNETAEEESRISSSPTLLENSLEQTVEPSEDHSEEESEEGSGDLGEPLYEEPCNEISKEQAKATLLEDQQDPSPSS
T1 sequence (Q9UM73 19-1620 limits assumed): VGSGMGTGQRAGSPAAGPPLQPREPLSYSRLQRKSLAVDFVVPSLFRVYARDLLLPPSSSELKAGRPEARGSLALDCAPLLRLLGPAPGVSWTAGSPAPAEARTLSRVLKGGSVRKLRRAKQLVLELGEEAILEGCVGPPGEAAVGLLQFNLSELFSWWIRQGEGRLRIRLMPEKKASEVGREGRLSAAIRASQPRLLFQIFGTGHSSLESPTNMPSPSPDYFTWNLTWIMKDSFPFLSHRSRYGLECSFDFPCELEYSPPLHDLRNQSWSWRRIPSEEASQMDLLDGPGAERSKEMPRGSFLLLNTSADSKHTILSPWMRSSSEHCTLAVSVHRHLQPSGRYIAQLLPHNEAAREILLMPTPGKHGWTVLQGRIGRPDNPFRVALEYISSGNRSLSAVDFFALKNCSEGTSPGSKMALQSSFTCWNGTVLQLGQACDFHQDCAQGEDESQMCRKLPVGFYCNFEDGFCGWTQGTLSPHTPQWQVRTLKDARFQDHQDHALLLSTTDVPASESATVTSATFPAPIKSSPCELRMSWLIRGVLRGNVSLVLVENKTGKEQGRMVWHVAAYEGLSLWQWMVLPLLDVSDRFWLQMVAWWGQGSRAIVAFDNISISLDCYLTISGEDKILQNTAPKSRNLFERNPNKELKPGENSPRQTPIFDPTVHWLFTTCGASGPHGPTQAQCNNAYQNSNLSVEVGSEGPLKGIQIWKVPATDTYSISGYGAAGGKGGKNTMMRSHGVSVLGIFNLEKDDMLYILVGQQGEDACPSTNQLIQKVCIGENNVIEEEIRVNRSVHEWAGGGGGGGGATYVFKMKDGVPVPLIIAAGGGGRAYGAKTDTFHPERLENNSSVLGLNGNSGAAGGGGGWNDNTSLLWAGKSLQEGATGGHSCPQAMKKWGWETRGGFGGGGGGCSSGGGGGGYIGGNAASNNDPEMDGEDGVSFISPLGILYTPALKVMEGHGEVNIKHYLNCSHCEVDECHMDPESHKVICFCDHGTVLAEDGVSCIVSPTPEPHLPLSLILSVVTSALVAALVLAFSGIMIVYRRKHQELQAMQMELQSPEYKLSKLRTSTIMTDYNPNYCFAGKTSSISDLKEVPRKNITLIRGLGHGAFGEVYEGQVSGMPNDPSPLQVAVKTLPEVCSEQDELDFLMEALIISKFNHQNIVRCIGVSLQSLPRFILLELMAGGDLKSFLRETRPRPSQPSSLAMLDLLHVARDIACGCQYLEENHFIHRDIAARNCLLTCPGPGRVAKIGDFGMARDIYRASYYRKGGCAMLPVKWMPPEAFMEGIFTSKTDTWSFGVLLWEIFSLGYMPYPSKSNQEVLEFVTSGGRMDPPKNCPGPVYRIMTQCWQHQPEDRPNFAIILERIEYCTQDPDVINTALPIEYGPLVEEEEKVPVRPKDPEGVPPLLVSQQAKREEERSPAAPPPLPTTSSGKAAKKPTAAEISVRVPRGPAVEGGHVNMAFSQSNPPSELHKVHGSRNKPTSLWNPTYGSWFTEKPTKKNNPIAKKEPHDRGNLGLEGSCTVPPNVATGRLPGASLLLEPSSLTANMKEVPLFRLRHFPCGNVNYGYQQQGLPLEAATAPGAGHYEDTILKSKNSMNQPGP
Chain of Cyclin-dependent kinase 4 (Homo sapiens) (P11802 whole entry): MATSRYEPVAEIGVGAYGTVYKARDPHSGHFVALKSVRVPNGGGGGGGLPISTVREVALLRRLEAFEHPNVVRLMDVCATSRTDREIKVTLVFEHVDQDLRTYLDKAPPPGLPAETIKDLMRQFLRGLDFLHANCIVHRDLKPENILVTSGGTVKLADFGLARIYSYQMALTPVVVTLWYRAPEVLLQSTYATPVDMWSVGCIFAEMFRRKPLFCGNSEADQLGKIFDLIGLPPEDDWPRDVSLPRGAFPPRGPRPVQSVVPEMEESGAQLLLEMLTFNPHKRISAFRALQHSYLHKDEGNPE
Chain of Protein cereblon/ALK tyrosine kinase receptor (Homo sapiens) (Q96SW2 whole entry partner): as the sequence (Q96SW2 whole entry partner) above
Chain of Protein cereblon/ALK tyrosine kinase receptor (Homo sapiens) (Q9UM73 19-1620 limits assumed): as the sequence (Q9UM73 19-1620 limits assumed) above

## CC(=O)c1c(C)c2cnc(Nc3ccc(N4CCN(CC(=O)NCCSSCCN(CC(=O)NCCNc5cccc6c5C(=O)N(C5CCC(=O)NC5=O)C6=O)C(=O)CCCCCCC(=O)N5CCC(c6cc(OC(C)C)c(Nc7ncc(Cl)c(Nc8ccccc8S(=O)(=O)C(C)C)n7)cc6C)CC5)CC4)cn3)nc2n(C2CCCC2)c1=O (centres undefined)
[1]
  IC50: 55.3 µM
NCI-H3122 [2]
  Activity: 1.03%
[3]
  Activity: inactive
NCI-H3122 [4]
  Activity: 63.17%
NCI-H3122 [5]
  Activity: 81.72%
[6]
  Activity: inactive
[7]
  Activity: Non-Toxic
[8]
  Activity: Non-Toxic
[9]
  Activity: Non-Toxic
[10]
  Activity: inactive
[11]
  Activity: Active
[12]
  Activity: Non-Toxic
[13]
  Activity: inactive
[14]
  Activity: Active
NCI-H3122 [15]
  viability at 0.312 µM: 91.5%
NCI-H3122 [16]
  IC50: 0.11 µM
NCI-H3122 [17]
  viability at 0.625 µM: 88.9%
NCI-H3122 [18]
  inhibition in vivo at 75 mg/kg: 60.5%
NCI-H3122 [19]
  Activity: 17.2%
NCI-H3122 [20]
  Activity: 1.92%
[21]
  Activity: Non-Toxic
[22]
  inhibition: 80.2%
[23]
  IC50: 12.7 µM
NCI-H3122 [24]
  Activity: 11.78%
NCI-H3122 [25]
  viability at 1.25 µM: 86.6%
NCI-H3122 [26]
  Activity: 1.35%
[27]
  Activity: Active
NCI-H3122 [28]
  Activity: 2.11%
NCI-H3122 [29]
  Activity: 0.6%
